Data from patent publication US6448030B1, “Method for predicting the efficacy of anti-cancer drugs” (University of Nevada-Las Vegas, priority 2000, dated 2002).

Tests used:
[1] = test system: human breast cancer cells; test: Haptotactic migration of breast cancer cells towards fibronectin in a migration plate, migrated cells labeled with calcein-AM; assay type: cell-based; conditions: for inhibition of migration, dose dependence: sublethal concentration
Method: (§1) After 18 hours, migrated cells were labeled with calcein-AM and fluorescence quantitated from the bottom. Nonmigrated cells were labeled with propidium iodide and fluorescence quantitated from the top. Estimation of 100% cell death was made by lysing cells in a test chamber with 1% Triton X-100 (TX 100) Error bars represent the standard deviation of 4-16 replicate test chambers. Asterisks represent a significant difference from migration without drugs (P<0.05). RFU=relative fluorescence units.
(§2) The cell suspension was added to the first chamber of a migration plate containing 96 chambers per plate at a concentration of about 80,000 cells per chamber. The migration plate used in this assay was manufactured by Polyfiltronics. Similar plates are available from Becton-Dickinson (U.S. Pat No. 5,801,055). The second chamber contained either haptotactic stimulus in the form of 20 μg/ml fibronectin or chemotactic in the form of 5% fetal calf serum. Cells were allowed to migrate in a humidified incubator at 37° C. and 5% carbon dioxide […].
(§3) During the last half hour of the incubation, calcein-AM (Molecular Probes, Eugene, Oreg.) was added to the second chamber to a final concentration of 5 μM and propidium iodide was added to the first chamber to a final concentration of 30 μM. At the end of the incubation the underside of the filters were washed twice in phosphate buffered saline. Fluorescence from each individual well chamber was measured from the bottom using 485 nm excitation and 530 nm emission filters.
(§4) Fluorescence from each individual well chamber was measured from the top using 560 nm excitation and 645 nm emission wavelength filters using a Tecan SpectraFluor fluorescent plate reader (Research Triangle Park NC). […] The asterisks represent a significant difference from positive control (p<0.05).

[2] = test system: human breast cancer cells; test: Chemotactic migration of breast cancer cells towards serum in a migration plate, migrated cells labeled with calcein-AM; assay type: cell-based; conditions: highly metastatic breast cells; for inhibition at 20 µM: 20 μM drug
Method: as §1, §2, §3, §4

[3] = haptotactic and chemotactic migration
[4] = Homo sapiens, serum stimulus, read-out: inhibition of chemotaxis

For NC(=O)c1nnn(Cc2cc(Cl)c(C(=O)c3ccc(Cl)cc3)c(Cl)c2)c1N [CAI, carboxyamido-triazole], the inhibition of haptotaxis ([1]; 20 μM drug, fibronectin stimulus, highly metastatic breast cells) was “abolished haptotaxis”, the inhibition at 10 µM ([1]; Homo sapiens, 10 μM drug, fibronectin stimulus, highly metastatic breast cells, read-out: inhibition of haptotaxis) was 32% and the “effectiveness at halting migration, comparison of the two drugs” value [1, 3] was “more effective than tamoxifen at halting migration”. The “inhibition of migration, dose dependence” value [1, 3] was “inhibited migration in a dose-dependent manner at sublethal concentration”, the “haptotactic migration inhibition relative to concentrations causing cell death” value ([1]; highly metastatic breast cells, FIGS. 3A, 3B) was “inhibited at lower concentrations than those that cause cell death” and the inhibition at 10 µM ([2]; Homo sapiens, 10 μM drug, serum stimulus, read-out: inhibition of chemotaxis) was 7%. For the same molecule, the inhibition at 20 µM [2, 4] was 42% and the “chemotactic migration inhibition relative to concentrations causing cell death” value ([2]; FIGS. 3A, 3B) was “inhibited at lower concentrations than those that cause cell death”.
CC/C(=C(\c1ccccc1)c1ccc(OCCN(C)C)cc1)c1ccccc1 [tamoxifen] was tested, and the inhibition of haptotaxis ([1]; 10 μM drug, fibronectin stimulus, highly metastatic breast cells) was “non-significant inhibition”, the inhibition at 20 µM ([1]; Homo sapiens, 20 μM drug, fibronectin stimulus, highly metastatic breast cells, read-out: inhibition of haptotaxis) was 51% and the “inhibition of migration, dose dependence” value [1, 3] was “inhibited migration in a dose-dependent manner at sublethal concentration”. The inhibition of chemotaxis ([2]; 10 μM drug, serum stimulus) was “non-significant inhibition” and the inhibition at 20 µM [2, 4] was 9%.
